Key:
Experiment in all cases: cells
SK-UT-1 = assay type: functional, cell-based, Homo sapiens; conditions: Homo sapiens, SK-UT-1;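 also: growth inhibition of SK-UT-1 cells, measured by a cell viability assay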
Description: SANGER: Inhibition of human SK-UT-1 cell growth in a cell viability assay.

HCC1806 = assay type: functional, cell-based, Homo sapiens; conditions: Homo sapiens, HCC1806;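 also: growth inhibition of the cancer cell line, determined with a cell viability assay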
Description: SANGER: Inhibition of human HCC1806 cell growth in a cell viability assay.

HCC1419 = assay type: functional, cell-based, Homo sapiens; conditions: Homo sapiens, HCC1419;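 also: growth inhibition of human HCC1419 cells, read out as cell viability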
Description: SANGER: Inhibition of human HCC1419 cell growth in a cell viability assay.

MeWo = assay type: functional, cell-based, Homo sapiens; conditions: Homo sapiens, MeWo;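 also: growth inhibition of MeWo cells, determined by a cell viability readout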
Description: SANGER: Inhibition of human Mewo cell growth in a cell viability assay.

NCI-H1755 = assay type: functional, cell-based, Homo sapiens; conditions: Homo sapiens, NCI-H1755;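 also: cell viability readout used to measure growth inhibition of NCI-H1755 cells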
Description: SANGER: Inhibition of human NCI-H1755 cell growth in a cell viability assay.

LCLC-103H cell line = assay type: functional, cell-based, Homo sapiens; conditions: Homo sapiens, LCLC-103H
Description: SANGER: Inhibition of human LCLC-103H cell growth in a cell viability assay.

LS-1034 = assay type: functional, cell-based, Homo sapiens; conditions: Homo sapiens, LS-1034
Description: SANGER: Inhibition of human LS-1034 cell growth in a cell viability assay.

OMC-1 = assay type: functional, cell-based, Homo sapiens; conditions: Homo sapiens, OMC-1;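 also: growth inhibition of the OMC-1 cell line, measured by a cell viability assay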
Description: SANGER: Inhibition of human OMC-1 cell growth in a cell viability assay.

U-251 = assay type: functional, cell-based, Homo sapiens; conditions: Homo sapiens, U-251;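 also: growth inhibition of human U-251 cells, read out through a cell viability assay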
Description: SANGER: Inhibition of human U251 cell growth in a cell viability assay.

A2780 = assay type: functional, cell-based, Homo sapiens; conditions: Homo sapiens, A2780;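 also: growth inhibition of A2780 cells, read out with a cell viability assay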
Description: SANGER: Inhibition of human A2780 cell growth in a cell viability assay.

KP-4 = assay type: functional, cell-based, Homo sapiens; conditions: Homo sapiens, KP-4; read-out: IC50;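 also: human KP-4 cells, with growth inhibition read out through a cell viability assay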
Description: SANGER: Inhibition of human KP-4 cell growth in a cell viability assay.

CWR22R = assay type: functional, cell-based, Homo sapiens; conditions: Homo sapiens, 22Rv1;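 also: growth inhibition of 22Rv1 cells, read out with a cell viability assay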
Description: SANGER: Inhibition of human 22RV1 cell growth in a cell viability assay.

HT1197 = assay type: functional, cell-based, Homo sapiens, HT-1197; conditions: Homo sapiens, HT1197
Description: SANGER: Inhibition of human HT-1197 cell growth in a cell viability assay.

Ramos-2G6-4C10 = assay type: functional, cell-based; conditions: Homo sapiens;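 also: growth inhibition of the cell line, measured by a cell viability read-out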
Description: SANGER: Inhibition of human Ramos-2G6-4C10 cell growth in a cell viability assay.

H4 = assay type: functional, cell-based; conditions: Homo sapiens
Description: SANGER: Inhibition of human H4 cell growth in a cell viability assay.

U-266 = assay type: functional, cell-based; conditions: Homo sapiens
Description: SANGER: Inhibition of human U-266 cell growth in a cell viability assay.

NCI-H1838 = assay type: functional, cell-based, Homo sapiens; conditions: Homo sapiens, NCI-H1838;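 also: growth inhibition of NCI-H1838 cells, determined with a cell viability readout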
Description: SANGER: Inhibition of human NCI-H1838 cell growth in a cell viability assay.

SCC-9 = assay type: functional, cell-based, Homo sapiens; conditions: Homo sapiens, SCC-9;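 also: Read-out is a cell viability assay, with values giving inhibition of cell growth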
Description: SANGER: Inhibition of human SCC-9 cell growth in a cell viability assay.

HMV-2 cell line = assay type: functional, cell-based, Homo sapiens; conditions: Homo sapiens, HMV-2;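 also: growth inhibition of HMV-II cells, read out with a cell viability assay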
Description: SANGER: Inhibition of human HMV-II cell growth in a cell viability assay.

SK-NEP-1 = assay type: functional, cell-based; conditions: Homo sapiens;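 also: growth inhibition of human SK-NEP-1 cells, read out by a cell viability assay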
Description: SANGER: Inhibition of human SK-NEP-1 cell growth in a cell viability assay.

KP-N-YN = assay type: functional, cell-based; conditions: Homo sapiens;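 also: growth inhibition of KP-N-YN cells, read out with a cell viability assay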
Description: SANGER: Inhibition of human KP-N-YN cell growth in a cell viability assay.

HCC1569 = assay type: functional, cell-based, Homo sapiens; conditions: Homo sapiens, HCC1569;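 also: growth inhibition of human HCC1569 cells, read out with a cell viability assay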
Description: SANGER: Inhibition of human HCC1569 cell growth in a cell viability assay.

Calu-3 = assay type: functional, cell-based, Homo sapiens; conditions: Homo sapiens, Calu-3;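 also: growth inhibition of human Calu-3 cells, determined with a cell viability assay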
Description: SANGER: Inhibition of human Calu-3 cell growth in a cell viability assay.

SK-MES-1 = assay type: functional, cell-based, Homo sapiens; conditions: Homo sapiens, SK-MES-1;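 also: growth inhibition of human SK-MES-1 cells, read out with a cell viability assay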
Description: SANGER: Inhibition of human SK-MES-1 cell growth in a cell viability assay.

PC-14 = assay type: functional, cell-based, Homo sapiens; conditions: Homo sapiens, PC-14;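 also: cell viability assay measuring inhibition of PC-14 cell growth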
Description: SANGER: Inhibition of human PC-14 cell growth in a cell viability assay.

HL-60 = assay type: functional, cell-based; conditions: Homo sapiens;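 also: growth inhibition of human HL-60 cells, read out with a cell viability assay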
Description: SANGER: Inhibition of human HL-60 cell growth in a cell viability assay.

SCC-4 = assay type: functional, cell-based, Homo sapiens; conditions: Homo sapiens, SCC-4;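 also: growth inhibition of human SCC-4 cells, read out as cell viability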
Description: SANGER: Inhibition of human SCC-4 cell growth in a cell viability assay.

OVCAR-4 = assay type: functional, cell-based, Homo sapiens; conditions: Homo sapiens, OVCAR-4;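 also: growth inhibition of human OVCAR-4 cells, measured with a cell viability assay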
Description: SANGER: Inhibition of human OVCAR-4 cell growth in a cell viability assay.

ChaGo-K-1 = assay type: functional, cell-based; conditions: Homo sapiens;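 also: growth inhibition of ChaGo-K-1 cells, read out with a cell viability assay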
Description: SANGER: Inhibition of human ChaGo-K-1 cell growth in a cell viability assay.

DOHH-2 = assay type: functional, cell-based; conditions: Homo sapiens;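 also: growth inhibition of human DOHH-2 cells, read out with a cell viability assay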
Description: SANGER: Inhibition of human DOHH-2 cell growth in a cell viability assay.

NB10 = assay type: functional, cell-based, Homo sapiens; conditions: Homo sapiens, NB10;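 also: growth inhibition of NB10 cells, read out by a cell viability assay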
Description: SANGER: Inhibition of human NB10 cell growth in a cell viability assay.

BE-13 = assay type: functional, cell-based; conditions: Homo sapiens;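 also: growth inhibition of human BE-13 cells, measured with a cell viability assay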
Description: SANGER: Inhibition of human BE-13 cell growth in a cell viability assay.

SW1710 = assay type: functional, cell-based, Homo sapiens; conditions: Homo sapiens, SW1710;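 also: growth inhibition of SW1710 cells, determined with a cell viability assay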
Description: SANGER: Inhibition of human SW1710 cell growth in a cell viability assay.

A101D = assay type: functional, cell-based, Homo sapiens; conditions: Homo sapiens, A101D;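 also: growth inhibition of the cell line, measured with a viability assay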
Description: SANGER: Inhibition of human A101D cell growth in a cell viability assay.

SW756 = assay type: functional, cell-based, Homo sapiens; conditions: Homo sapiens, SW756;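 also: growth inhibition of human SW756 cells, read out with a cell viability assay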
Description: SANGER: Inhibition of human SW756 cell growth in a cell viability assay.

MHH-ES-1 = assay type: functional, cell-based, Homo sapiens; conditions: Homo sapiens, MHH-ES-1;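 also: cell growth inhibition measured by a cell viability assay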
Description: SANGER: Inhibition of human MHH-ES-1 cell growth in a cell viability assay.

UMC-11 = assay type: functional, cell-based, Homo sapiens; conditions: Homo sapiens, UMC-11;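 also: growth inhibition of UMC-11 cells, read out with a cell viability assay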
Description: SANGER: Inhibition of human UMC-11 cell growth in a cell viability assay.

ES3 = assay type: functional, cell-based, Homo sapiens; conditions: Homo sapiens, ES3;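 also: growth inhibition of ES3 cells, read out with a cell viability assay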
Description: SANGER: Inhibition of human ES3 cell growth in a cell viability assay.

T-24 = assay type: functional, cell-based, Homo sapiens; conditions: Homo sapiens, T-24;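 also: growth inhibition of T-24 cells, read out with a cell viability assay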
Description: SANGER: Inhibition of human T-24 cell growth in a cell viability assay.

CaR-1 = assay type: functional, cell-based, Homo sapiens; conditions: Homo sapiens, CaR-1;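 also: growth inhibition of human CaR-1 cancer cells, read out with a cell viability assay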
Description: SANGER: Inhibition of human CaR-1 cell growth in a cell viability assay.

KNS-42 = assay type: functional, cell-based, Homo sapiens; conditions: Homo sapiens, KNS-42;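 also: growth inhibition of KNS-42 cells, read out with a cell viability assay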
Description: SANGER: Inhibition of human KNS-42 cell growth in a cell viability assay.

BT-474 = assay type: functional, cell-based, Homo sapiens; conditions: Homo sapiens, BT-474
Description: SANGER: Inhibition of human BT-474 cell growth in a cell viability assay.

GP5d = assay type: functional, cell-based, Homo sapiens; conditions: Homo sapiens, GP5d;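 also: growth inhibition of human GP5d cells, read out with a cell viability assay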
Description: SANGER: Inhibition of human GP5d cell growth in a cell viability assay.

SKG-IIIa = assay type: functional, cell-based, Homo sapiens; conditions: Homo sapiens, SKG-IIIa;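 also: cell growth inhibition, read out with a cell viability assay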
Description: SANGER: Inhibition of human SKG-IIIa cell growth in a cell viability assay.

KYSE-450 = assay type: functional, cell-based; conditions: Homo sapiens;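 also: cell growth inhibition measured by a viability assay in human KYSE-450 cells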
Description: SANGER: Inhibition of human KYSE-450 cell growth in a cell viability assay.

C-33-A = assay type: functional, cell-based, Homo sapiens; conditions: Homo sapiens, C-33-A;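 also: cell viability assay measuring growth inhibition of C-33-A cells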
Description: SANGER: Inhibition of human C-33-A cell growth in a cell viability assay.

A-427 = assay type: functional, cell-based, Homo sapiens; conditions: Homo sapiens, A-427;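 also: growth inhibition of human A-427 cells, read out by a cell viability assay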
Description: SANGER: Inhibition of human A427 cell growth in a cell viability assay.

LK-2 = assay type: functional, cell-based, Homo sapiens; conditions: Homo sapiens, LK-2;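 also: growth inhibition of LK-2 cells, read out with a viability assay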
Description: SANGER: Inhibition of human LK-2 cell growth in a cell viability assay.

NCI-H520 = assay type: functional, cell-based, Homo sapiens; conditions: Homo sapiens, NCI-H520;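 also: growth inhibition of NCI-H520 cells, measured by a cell viability assay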
Description: SANGER: Inhibition of human NCI-H520 cell growth in a cell viability assay.

BXPC-3 = assay type: functional, cell-based, Homo sapiens; conditions: Homo sapiens, BXPC-3;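 also: growth inhibition of human BxPC-3 cells, read out by a cell viability assay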
Description: SANGER: Inhibition of human BxPC-3 cell growth in a cell viability assay.

HOP-62 = assay type: functional, cell-based, Homo sapiens; conditions: Homo sapiens, HOP-62;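 also: cell growth inhibition determined with a viability assay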
Description: SANGER: Inhibition of human HOP-62 cell growth in a cell viability assay.

Structure (SMILES): COc1ccc(C2=N[C@@H](c3ccc(Cl)cc3)[C@@H](c3ccc(Cl)cc3)N2C(=O)N2CCNC(=O)C2)c(OC(C)C)c1 [NUTLIN-3]
- IC50 (SK-UT-1): > 8 µM
- IC50 (HCC1806): > 8 µM
- IC50 (HCC1419): > 8 µM
- IC50 (MeWo): > 8 µM
- IC50 (NCI-H1755): > 8 µM
- IC50 (LCLC-103H cell line): > 8 µM
- IC50 (LS-1034): > 8 µM
- IC50 (OMC-1): > 8 µM
- IC50 (U-251): > 8 µM
- IC50 (A2780): > 8 µM
- IC50 (KP-4): > 8 µM
- IC50 (CWR22R): > 8 µM
- IC50 (HT1197): > 8 µM
- IC50 (Ramos-2G6-4C10): > 8 µM
- IC50 (H4): 0.663 µM
- IC50 (U-266): > 8 µM
- IC50 (NCI-H1838): > 8 µM
- IC50 (SCC-9): > 8 µM
- IC50 (HMV-2 cell line): > 8 µM
- IC50 (SK-NEP-1): > 8 µM
- IC50 (KP-N-YN): > 8 µM
- IC50 (HCC1569): > 8 µM
- IC50 (Calu-3): > 8 µM
- IC50 (SK-MES-1): > 8 µM
- IC50 (PC-14): > 8 µM
- IC50 (HL-60): > 8 µM
- IC50 (SCC-4): > 8 µM
- IC50 (OVCAR-4): > 8 µM
- IC50 (ChaGo-K-1): > 8 µM
- IC50 (DOHH-2): 2.42 µM
- IC50 (NB10): 3.21 µM
- IC50 (BE-13): > 8 µM
- IC50 (SW1710): > 8 µM
- IC50 (A101D): 2.35 µM
- IC50 (SW756): > 8 µM
- IC50 (MHH-ES-1): > 8 µM
- IC50 (UMC-11): > 8 µM
- IC50 (ES3): > 8 µM
- IC50 (T-24): > 8 µM
- IC50 (CaR-1): > 8 µM
- IC50 (KNS-42): > 8 µM
- IC50 (BT-474): > 8 µM
- IC50 (GP5d): > 8 µM
- IC50 (SKG-IIIa): > 8 µM
- IC50 (KYSE-450): > 8 µM
- IC50 (C-33-A): > 8 µM
- IC50 (A-427): 6.88 µM
- IC50 (LK-2): > 8 µM
- IC50 (NCI-H520): > 8 µM
- IC50 (BXPC-3): > 8 µM

Structure (SMILES): O=C(c1cc(Cc2n[nH]c(=O)c3ccccc23)ccc1F)N1CCN(C(=O)C2CC2)CC1 [OLAPARIB]
- IC50 (SK-UT-1): > 5 µM
- IC50 (HCC1806): > 5 µM
- IC50 (HCC1419): > 5 µM
- IC50 (MeWo): > 5 µM
- IC50 (NCI-H1755): > 5 µM
- IC50 (LCLC-103H cell line): > 5 µM
- IC50 (LS-1034): > 5 µM
- IC50 (OMC-1): > 5 µM
- IC50 (U-251): > 5 µM
- IC50 (A2780): > 5 µM
- IC50 (KP-4): > 5 µM
- IC50 (CWR22R): > 5 µM
- IC50 (HT1197): > 5 µM
- IC50 (Ramos-2G6-4C10): > 5 µM
- IC50 (H4): 4.89 µM
- IC50 (U-266): > 5 µM
- IC50 (NCI-H1838): > 5 µM
- IC50 (SCC-9): > 5 µM
- IC50 (HMV-2 cell line): > 5 µM
- IC50 (SK-NEP-1): > 5 µM
- IC50 (KP-N-YN): > 5 µM
- IC50 (HCC1569): > 5 µM
- IC50 (Calu-3): > 5 µM
- IC50 (SK-MES-1): > 5 µM
- IC50 (PC-14): > 5 µM
- IC50 (HL-60): > 5 µM
- IC50 (SCC-4): > 5 µM
- IC50 (OVCAR-4): > 5 µM
- IC50 (ChaGo-K-1): > 5 µM
- IC50 (DOHH-2): > 5 µM
- IC50 (NB10): > 5 µM
- IC50 (BE-13): > 5 µM
- IC50 (SW1710): > 5 µM
- IC50 (A101D): > 5 µM
- IC50 (SW756): > 5 µM
- IC50 (MHH-ES-1): 1.62 µM
- IC50 (UMC-11): > 5 µM
- IC50 (ES3): > 5 µM
- IC50 (T-24): > 5 µM
- IC50 (CaR-1): > 5 µM
- IC50 (KNS-42): > 5 µM
- IC50 (BT-474): > 5 µM
- IC50 (GP5d): > 5 µM
- IC50 (SKG-IIIa): > 5 µM
- IC50 (KYSE-450): > 5 µM
- IC50 (C-33-A): > 5 µM
- IC50 (A-427): > 5 µM
- IC50 (LK-2): > 5 µM
- IC50 (NCI-H520): > 5 µM
- IC50 (BXPC-3): > 5 µM

Structure (SMILES): Cn1cc(C2=C(c3ccc(Cl)cc3Cl)C(=O)NC2=O)c2ccccc21 [SB-216763]
- IC50 (HOP-62): 0.853 µM
- IC50 (SK-UT-1): > 10 µM
- IC50 (HCC1806): > 10 µM
- IC50 (HCC1419): > 10 µM
- IC50 (MeWo): > 10 µM
- IC50 (NCI-H1755): > 10 µM
- IC50 (LCLC-103H cell line): > 10 µM
- IC50 (LS-1034): > 10 µM
- IC50 (U-251): > 10 µM
- IC50 (A2780): > 10 µM
- IC50 (KP-4): > 10 µM
- IC50 (CWR22R): > 10 µM
- IC50 (HT1197): > 10 µM
- IC50 (Ramos-2G6-4C10): > 10 µM
- IC50 (H4): > 10 µM
- IC50 (U-266): > 10 µM
- IC50 (NCI-H1838): > 10 µM
- IC50 (SCC-9): > 10 µM
- IC50 (HMV-2 cell line): 7.68 µM
- IC50 (SK-NEP-1): > 10 µM
- IC50 (KP-N-YN): > 10 µM
- IC50 (HCC1569): > 10 µM
- IC50 (Calu-3): > 10 µM
- IC50 (SK-MES-1): > 10 µM
- IC50 (PC-14): > 10 µM
- IC50 (HL-60): > 10 µM
- IC50 (SCC-4): > 10 µM
- IC50 (OVCAR-4): > 10 µM
- IC50 (ChaGo-K-1): > 10 µM
- IC50 (DOHH-2): > 10 µM
- IC50 (NB10): > 10 µM
- IC50 (BE-13): > 10 µM
- IC50 (SW1710): > 10 µM
- IC50 (A101D): > 10 µM
- IC50 (MHH-ES-1): > 10 µM
- IC50 (UMC-11): > 10 µM
- IC50 (ES3): > 10 µM
- IC50 (T-24): > 10 µM
- IC50 (CaR-1): > 10 µM
- IC50 (KNS-42): > 10 µM
- IC50 (BT-474): > 10 µM
- IC50 (GP5d): > 10 µM
- IC50 (SKG-IIIa): > 10 µM
- IC50 (KYSE-450): > 10 µM
- IC50 (C-33-A): > 10 µM
- IC50 (A-427): > 10 µM
- IC50 (LK-2): > 10 µM
- IC50 (NCI-H520): > 10 µM
- IC50 (BXPC-3): > 10 µM
